Experiment [1] addresses GTPase KRas (Homo sapiens, UniProt P01116, G12V). Nature of the experiment: Inhibition of alexa fluor 647-labeled kinase tracer 314 binding to biotinylated-KRAS G12V mutant (unknown origin) measured after 60 mins by HTRF competition binding assay. Particulars: read-out: IC50.
A short description of experiment [2]: Inhibition of GDP-tagged biotinylated KRas G12C mutant (unknown origin)/GST-Raf (unknown origin) assessed as SOS-mediated nucleotide exchange measured after 1 hr by HRTF assay. More on the design: species or system Homo sapiens.
The test system of experiment [3] is GTPase KRas (Homo sapiens), P01116 [G12V]. Nature of the experiment: Inhibition of alexa fluor 647-labeled kinase tracer 314 binding to biotinylated-KRAS G12V mutant (unknown origin) at 100 uM measured after 60 mins by HTRF competition binding assay.

These results are taken from ChEMBL document CHEMBL5055671, “Targeting a Novel KRAS Binding Site: Application of One-Component Stapling of Small (5-6-mer) Peptides” (J Med Chem, 2021).

On to `CC(C)C[C@H](NC(=O)[C@@H]1COCc2cnnn2CC(=O)NCC(=O)N2CCC[C@H]2C(=O)N[C@@H](Cc2cccc3ccccc23)C(=O)N1)C(N)=O`, for which the values for the IC50 in experiment [1] and in experiment [2] were 9.6 µM and 3.2 µM, respectively.
Regarding `CC(C)C[C@H](NC(=O)[C@@H]1COCc2cnnn2CCC(=O)NCC(=O)N2CCC[C@H]2C(=O)N[C@@H](Cc2cccc3ccccc23)C(=O)N1)C(N)=O`, the IC50 was determined as 7 µM in experiment [1] and 3.6 µM in experiment [2].
Regarding `CC[C@H](C)[C@@H]1NC(=O)[C@@H]2CCCN2C(=O)[C@H](Cc2ccc(O)cc2)NC(=O)CCCCn2cc(nn2)COC[C@@H](C(=O)N[C@@H](CC(C)C)C(N)=O)NC1=O`, the half-maximal inhibitory concentration (IC50) in experiment [1] was above 100 µM; in experiment [2], above 30 µM. Further, in experiment [3], the inhibition was 22%.
Consider `CC[C@H](C)[C@@H]1NC(=O)[C@@H]2CCCN2C(=O)[C@H](Cc2ccccc2)NC(=O)CCCc2cn(nn2)CC[C@@H](C(=O)N[C@@H](CC(C)C)C(N)=O)NC1=O`, for which the IC50 in experiment [1] was above 100 µM; in experiment [2], above 30 µM. Besides, in experiment [3], the inhibition was 9%.
As to `CC[C@H](C)[C@@H]1NC(=O)[C@@H]2CCCN2C(=O)[C@H](Cc2ccc(O)cc2)NC(=O)CCCCn2nncc2COC[C@@H](C(=O)N[C@@H](CC(C)C)C(N)=O)NC1=O`, the results for the IC50 in experiment [1] and in experiment [2] were above 100 µM and above 30 µM, respectively. Moreover, the inhibition in experiment [3] turned out to be 28%.
On to `CC(C)C[C@H](NC(=O)[C@H]1CSCc2cnnn2CCCCC(=O)NCC(=O)N2CCC[C@H]2C(=O)N[C@@H](Cc2cccc3ccccc23)C(=O)N1)C(N)=O`, for which the figures for the IC50 in experiment [1] and in experiment [2] were 11 µM and 2.5 µM, respectively.
As for `CC(C)C[C@H](NC(=O)[C@@H]1COCc2cnnn2CCCCC(=O)NCC(=O)N2CCOC[C@H]2C(=O)N[C@@H](Cc2cccc3ccccc23)C(=O)N1)C(N)=O`, the IC50 in experiment [1] was found to be 6.5 µM; in experiment [2], 5 µM.
On to `CC[C@H](C)[C@@H]1NC(=O)[C@@H]2CCCN2C(=O)[C@H](Cc2ccccc2)NC(=O)CCCc2cn(nn2)C[C@@H](C(=O)N[C@@H](CC(C)C)C(N)=O)NC1=O`, for which the IC50 in experiment [1] is above 100 µM; in experiment [2], above 30 µM. In experiment [3], this molecule showed an inhibition of 8%.
Turning to `CC(C)C[C@H](NC(=O)[C@@H]1COCc2cnnn2CCCCC(=O)NCC(=O)N2CCC[C@H]2C(=O)N[C@@H](Cc2cccc3ccccc23)C(=O)N1)C(N)=O`, the values for the IC50 in experiment [1] and in experiment [2] were 7.1 µM and 2.4 µM, respectively.
Turning to `CC(C)C[C@H](NC(=O)[C@@H]1COCc2cnnn2CCCC(=O)NCC(=O)N2CCC[C@H]2C(=O)N[C@@H](Cc2cccc3ccccc23)C(=O)N1)C(N)=O`, the IC50 worked out at 10 µM in experiment [1] and 4.1 µM in experiment [2].
Take `CC[C@H](C)[C@@H]1NC(=O)[C@@H]2CCCN2C(=O)[C@H](Cc2ccc(O)cc2)NC(=O)CCCCn2cc(nn2)CSC[C@@H](C(=O)N[C@@H](CC(C)C)C(N)=O)NC1=O`: the half-maximal inhibitory concentration (IC50) in experiment [1] was above 100 µM; in experiment [2], above 30 µM. Besides, the inhibition in experiment [3] was 0%.
`C=C1/C=C/COC[C@@H](C(=O)N[C@@H](CC(C)C)C(N)=O)NC(=O)[C@H]([C@@H](C)CC)NC(=O)[C@@H]2CCCN2C(=O)CNC(=O)CC1`: in experiment [1], the IC50 was above 100 µM. The molecule further had an inhibition in experiment [3] of 21%.
For `CC[C@H](C)[C@@H]1NC(=O)[C@@H]2CCCN2C(=O)CNC(=O)CCCC#CC#CCOC[C@@H](C(=O)N[C@@H](CC(C)C)C(N)=O)NC1=O`, in that order: above 100 µM and 0%.
With `CC(C)C[C@H](NC(=O)[C@@H]1COCc2cnnn2CCCCC(=O)NCC(=O)N2CCCC[C@H]2C(=O)N[C@@H](Cc2cccc3ccccc23)C(=O)N1)C(N)=O`, the IC50 in experiment [1] turned out to be 7.7 µM; in experiment [2], 2.4 µM.
Consider `CC[C@H](C)[C@@H]1NC(=O)[C@@H]2CCCN2C(=O)[C@H](Cc2ccc(O)cc2)NC(=O)CCCCn2nncc2CSC[C@@H](C(=O)N[C@@H](CC(C)C)C(N)=O)NC1=O`, for which the half-maximal inhibitory concentration (IC50) is above 100 µM in experiment [1] and above 30 µM in experiment [2]. The inhibition in experiment [3] was determined as 20%.
Turning to `CC[C@H](C)[C@@H]1NC(=O)[C@@H]2CCCN2C(=O)CNC(=O)CCCc2cnnn2CC[C@@H](C(=O)N[C@@H](CC(C)C)C(N)=O)NC1=O`, in experiment [1], the IC50 was above 100 µM. Besides, the inhibition in experiment [3] stood at 22%.
